Like-named read-outs stand apart in the source and are kept apart here.
Tests used:
[1] = in vivo; design: species or system nude mice (BALB/c nu/nu); details: mouse, in vivo; intravenous, continuous 5 days, nude mice; maximum dose at which no animal was dead within 2 weeks; read-out: Maximum tolerated dose
Description: (1) Measurement of maximum tolerated dose (MTD) of the spicamycin derivatives in nude mice
The spicamycin derivative was dissolved in dimethylsulfoxide (DMSO) and Cremophor EL® at the same volume as DMSO was added. Physiological saline was added so that the concentration of DMSO and Cremophor EL® was finally adjusted to 1%, respectively, and thus injection liquids of spicamycin derivative in a variety of concentrations were prepared. […] The maximum dose at which no animal was dead was defined as the MTD of the respective derivatives.

[2] = system: human colon cancer (COL-1); format: in vivo, mouse; details: for TGIR (tumor growth inhibition rate, maximum) / minTx (relative tumor volume when reduced to the minimum): COL-1 s.c. in nude mice, at MTD; for TGIR (tumor growth inhibition rate, maximum): TGIR=(1-Tx/Cx)×100, maximum during about 3 weeks; for minTx (relative tumor volume when reduced to the minimum): minimum throughout the test period
Description: (2) Method for measuring the antitumor effect on human colon cancer (COL-1)
COL-1, a human colon cancer, was transplanted subcutaneously into nude mice. When the tumor had grown to a volume of about 100 mm^3, the nude mice were divided into groups of 5 animals so that the average tumor volumes of respective groups were equalized. The respective spicamycin derivatives were administered to test groups at their MTDs, while physiological saline (solvent) containing 1% DMSO and 1% Cremophor EL® was administered to the control group. […] RV is expressed as RV =Vn/Vo where Vn is the tumor volume on day n and Vo is the initial tumor volume at the time treatment was commenced.

[3] = /minimum effective dose (effective: TGIR≥50)

SMILES | MTD at 336 h [1] | TGIR (tumor growth inhibition rate, maximum) [2] | minTx (relative tumor volume when reduced to the minimum) [2] | Therapeutic index ([2]; mouse, in vivo) | Therapeutic index [2, 3]
O=C(CCCCCCCCCCCCl)NCC(=O)N[C@@H]1[C@@H](O)[C@@H](O)[C@@H](Nc2ncnc3[nH]cnc23)O[C@H]1C(O)CO (stereo partly shown) [SPK132, 6-[4'-N-(N'-12-chlorododecanoylglycyl)spicaminyl-amino]purine] | 12 mg/kg/day | 98 | 0.08 | 4 | 
CCCCCCCCCCCCC(F)(F)C(=O)NCC(=O)NC1C(O)C(O)C(Nc2ncnc3[nH]cnc23)OC1C(O)CO (stereo not shown) [SPK182, 6-[4,-N-(N'-2,2-difluorotetradecanoylglycyl)spicaminyl-amino]purine] | 36 mg/kg/day | 90 | 0.24 | 8 | 
CCCCCCCCCCCCCC[C@@H](OC(C)=O)C(=O)NCC(=O)NC1C(O)C(O)C(Nc2ncnc3[nH]cnc23)OC1C(O)CO (stereo partly drawn) [SPK198, 6-[4'-N-(N'-(R) -2-acetoxyhexadecanoylglycyl)-spicaminyl-amino]purine] | 1.5 mg/kg/day | 82 |  |  | 
O=C(CCCCCCCCC#Cc1ccsc1)NCC(=O)NC1C(O)C(O)C(Nc2ncnc3[nH]cnc23)OC1C(O)CO (stereo not shown) [SPK263, 6-{4,-N-[N'-11-(3'-thienyl)-10-undecynoylglycyl]spicaminyl-amino}purine] | 12 mg/kg/day | 97 | 0.09 | 8 | 
O=C(CCCCCCCCCCCCCCF)NCC(=O)NC1C(O)C(O)C(Nc2ncnc3[nH]cnc23)OC1C(O)CO (stereo not shown) [SPK247, 6-[4,-N-(N'-15-fluoropentadecanoylglycyl)spicaminyl-amino]purine] | 6 mg/kg/day | 96 | 0.16 | 8 | 
O=C(CCCCCCCCCCBr)NCC(=O)N[C@@H]1[C@@H](O)[C@@H](O)[C@@H](Nc2ncnc3[nH]cnc23)O[C@H]1C(O)CO (stereo partly shown) [SPK64, 6-[4'-N-(N'-11-bromoundecanoylglycyl)spicaminyl-amino]purine] | 18 mg/kg/day | 95 |  | 4 | 
CCCCCCCCCCCC(=O)NCC(=O)NC1C(O)C(O)C(Nc2ncnc3[nH]cnc23)OC1C(O)CO (stereo not shown) [SPM8, reference compound] | 10.4 mg/kg/day | 94 | 0.19 | 4 | 
CCCCCCCCCCCCCC(=O)NCC(=O)N[C@@H]1[C@@H](O)[C@@H](O)[C@@H](Nc2ncnc3[nH]cnc23)O[C@H]1C(O)CO (stereo partly shown) [SPM10, 6-[4 ,-N-(N'-tetradecanoylglycyl)spicaminyl-amino]purine] | 2.6 mg/kg/day | 98 | 0.10 |  | 4
CCCCCCCC/C=C/C=C/C(=O)NCC(=O)N[C@@H]1[C@@H](O)[C@@H](O)[C@@H](Nc2ncnc3[nH]cnc23)O[C@H]1C(O)CO (stereo partly drawn) [SPK281, 6-[4'-N-(N'-trans,trans-2,4-tridecadienoylglycyl)spicaminyl-amino]purine] | 18 mg/kg/day | 99 | 0.06 | 8 | 
O=C(CCCCCCCCCCCCCCCF)NCC(=O)NC1C(O)C(O)C(Nc2ncnc3[nH]cnc23)OC1C(O)CO (stereo not shown) [SPK157, 6-[4,-N-(N'-16-fluorohexadecanoylglycyl)spicaminyl-amino]purine] | 1.6 mg/kg/day | 98 | 0.11 |  | 4
CCCCCCCCCCC(F)C(=O)NCC(=O)NC1C(O)C(O)C(Nc2ncnc3[nH]cnc23)OC1C(O)CO (stereo not shown) [SPK159, 6-[4'-N-(N'-2-fluorododecanoylglycyl)spicaminyl-amino]purine] | 24 mg/kg/day | 96 |  | 4 | 
O=C(CCCCCCCCCCCCCl)NCC(=O)N[C@@H]1[C@@H](O)[C@@H](O)[C@@H](Nc2ncnc3[nH]cnc23)O[C@H]1C(O)CO (stereo partly shown) [SPK278, 6-[4'-N-(N'-13-chlorotridecanoylglycyl)spicaminyl-amino]purine] | 12 mg/kg/day | 92 | 0.21 | 8 | 
CCCCS(=O)(=O)OCCCCCCCCCCCC(=O)NCC(=O)NC1C(O)C(O)C(Nc2ncnc3[nH]cnc23)OC1C(O)CO (stereo not shown) [SPK232, 6-[4'-N-(N'-12-butanesulfonyloxydodecanoylglycyl)spicaminyl-amino]purine] | 24 mg/kg/day | 96 |  | 4 | 
O=C(CCCCCCCCCCCCCBr)NCC(=O)N[C@@H]1[C@@H](O)[C@@H](O)[C@@H](Nc2ncnc3[nH]cnc23)O[C@H]1C(O)CO (stereo partly shown) [SPK273, 6-[4'-N-(N'-14-bromotetradecanoylglycyl)spicaminyl-amino]purine] | 12 mg/kg/day | 98 | 0.11 | 8 | 
CCCCCCCCCCCCC/C=C/C(=O)NCC(=O)N[C@@H]1[C@@H](O)[C@@H](O)[C@@H](Nc2ncnc3[nH]cnc23)O[C@H]1C(O)CO (stereo partly drawn) [SPK188, 6-[4'-N-(N'-trans-2-hexadecenoylglycyl)spicaminyl-amino]purine] | 0.6 mg/kg/day | 92 |  |  | 
O=C(CCCCCCCCCCCBr)NCC(=O)N[C@@H]1[C@@H](O)[C@@H](O)[C@@H](Nc2ncnc3[nH]cnc23)O[C@H]1C(O)CO (stereo partly shown) [SPK152, 6-[4'-N-(N'-12-bromododecanoylglycyl)spicaminyl-amino]purine] | 36 mg/kg/day | 100 | 0.03 | 8 | 
CC(C)CCCCCCCCCCC(=O)NCC(=O)N[C@@H]1[C@@H](O)[C@@H](O)[C@@H](Nc2ncnc3[nH]cnc23)O[C@H]1C(O)CO (stereo partly shown) [SPK136, 6-[4'-N-(N'-12-methyltridecanoylglycyl)spicaminyl-amino]purine] | 2 mg/kg/day | 84 |  |  | 4
N#CCCCCCCCCCCCCCCCC(=O)NCC(=O)NC1C(O)C(O)C(Nc2ncnc3[nH]cnc23)OC1C(O)CO (stereo not shown) [SPK177, 6-[4'-N-(N'-16-cyanohexadecanoylglycyl)-spicaminyl-amino]purine] | 13.5 mg/kg/day | 99 |  | 4 | 
CCCCCCCCCCCCCCC(Cl)C(=O)NCC(=O)NC1C(O)C(O)C(Nc2ncnc3[nH]cnc23)OC1C(O)CO (stereo not shown) [SPK135, 6-[4'-N-(N'-2-chlorohexadecanoylglycyl)spicaminylamino]purine] | 24 mg/kg/day | 93 |  | 4 | 
O=C(CCCCCCCCCCCCCF)NCC(=O)N[C@@H]1[C@@H](O)[C@@H](O)[C@@H](Nc2ncnc3[nH]cnc23)O[C@H]1C(O)CO (stereo partly shown) [SPK279, 6-[4,-N-(N,-14-fluorotetradecanoylglycyl)spicaminyl-amino]purine] | 6 mg/kg/day | 93 | 0.25 | 8 | 

From patent publication US5461036A, “Spicamycin derivatives and their use as anticancer agents” (priority 1991, dated 1995)
